Literature values in patent US20260355230A1, “SODIUM BICARBONATE PRODUCT FOR CHILDBIRTH LABOR” (LAMINARIA GROUP AB, priority 2023, published 2026).

Experiments:
[1] = 4.26 g sodium bicarbonate dissolved in water, oral
[2] = large amounts, particularly as an aqueous solution

O=C([O-])O.[Na+] [sodium bicarbonate]
pH in maternal blood [1]: increased significantly | fetal outcome ([1]; vs untreated group): a difference in fetal outcome was shown between the two groups | frequency of spontaneous vaginal deliveries ([1]; vs untreated group): substantially higher | AFL levels ([1]; vs untreated group, AFL >10.1 mmol/L): fell significantly | gastrointestinal side-effect [2]: acute gastrointestinal (GI) distress
